From patent US20160263131A1, “TREATMENT OF HEPATIC FIBROSIS USING AN INHIBITOR OF CBP/CATENIN” (priority 2013, published 2016)

Assays:
NASH mice [1] = experiment: Sirius red staining, fibrosis area in liver of NASH mice; format: in vivo, C57BL/6J mice; settings: NASH mice, 10 mg/kg oral QD 9-12 wks, 12 weeks of age, mean ± SD, n = 8; Disease-control 1.09 ± 0.27; significantly decreased; 10 mg/kg
Method: C57BL/6J mice (15-day pregnant female) were obtained from Charles River Laboratories Japan (Kanagawa, Japan). All animals used in this study were housed and cared for in accordance with the Japanese Pharmacological Society Guidelines for Animal Use. The animals were maintained in a SPF facility under controlled conditions of temperature (23±2° C.), humidity (45±10%), lighting (12-hour artificial light and dark cycles; light from 8:00 to 20:00) and air exchange. A high pressure (20±4 Pa) was maintained in the experimental room to prevent contamination of the facility. The animals were housed in polycarbonate cages KN-600 (Natsume Seisakusho, Japan) with a maximum of 4 mice per cage. Sterilized PULMASμ (Material Research Center, Japan) was used for bedding and replaced once a week. Sterilized solid HFD was provided ad libitum, being placed in the metal lid on top of the cage. Pure water was provided ad libitum from a water bottle equipped with a rubber stopper and a sipper tube. Water bottles were replaced once a week, cleaned and sterilized in autoclave and reused. Mice were identified by numbers engraved on earrings. Each cage was labeled with a specific identification code.

[2] = Body weight and general condition of NASH mice; settings: mouse, in vivo
Method: (§1) The viability, clinical signs and behavior were monitored daily. Body weight was recorded daily before drug administration. […] The animals were sacrificed by exsanguination through direct cardiac puncture under ether anesthesia (Wako Pure Chemical Industries).

NASH mice [3] = experiment: Liver weight and liver-to-body weight ratio in NASH mice; format: in vivo, C57BL/6J mice; settings: 10 mg/kg oral QD 9-12 wks, mean±SD
Method: as §1

NASH mice [4] = experiment: Whole blood glucose in NASH mice; format: in vivo, C57BL/6J mice; settings: 10 mg/kg oral QD 9-12 wks, mean±SD, Disease-control 682±63, significantly increased
Method: (§2) Non-fasting blood glucose was measured in whole blood using Life Check (EIDIA, Japan). For serum biochemistry, blood was collected in polypropylene tubes without anticoagulant and kept at room temperature for 30 minutes, followed by at 4° C. for 1 hour. The blood samples were then centrifuged at 1,000×g for 15 minutes at 4° C. The supernatant was collected and stored at −80° C. until use. Serum ALT and TG levels were measured by FUJI DRI-CHEM 7000 (Fujifilm, Japan).

NASH mice [5] = experiment: Serum ALT in NASH mice; format: in vivo, C57BL/6J mice; settings: 10 mg/kg oral QD 9-12 wks, mean±SD, Disease-control 38±8, no significant difference
Method: as §2

NASH mice [6] = experiment: Serum TG in NASH mice; format: in vivo, C57BL/6J mice; settings: 10 mg/kg oral QD 9-12 wks, mean±SD, Disease-control 558±256, no significant difference
Method: as §2

NASH mice [7] = experiment: Liver hydroxyproline content in NASH mice; format: in vivo, C57BL/6J mice; settings: μg per mg total protein, 10 mg/kg oral QD 9-12 wks, mean±SD, Disease-control 1.09±0.42, no significant difference
Method: To quantify liver hydroxyproline content, frozen liver samples (35-45 mg) were processed by an alkaline-acid hydrolysis method as follows: the livers were defatted with 100% acetone, dried in the air, dissolved in 2N NaOH at 65° C., and autoclaved at 121° C. for 20 minutes. The lysed samples (400 μL) were acid-hydrolyzed with 400 μL of 6N HCl at 121° C. for 20 minutes, and neutralized with 400 μL of 4N NaOH containing 10 mg/mL activated carbon. AC buffer (2.2M acetic acid/0.48M citric acid, 400 μL) was added to the samples, followed by centrifugation to collect the supernatant. To construct a standard curve of hydroxyproline, serial dilutions of trans-4-hydroxy-Lproline (Sigma-Aldrich) were prepared starting at 16 μg/mL. The prepared samples and standards (each 400 μL) were mixed with 400 μL chloramine T solution (Wako Pure Chemical Industries, Japan) and incubated for 25 minutes at room temperature. The samples were then mixed with Ehrlich's solution (400 μL) and heated at 65° C. for 20 minutes to develop the color. After samples were cooled on ice and centrifuged to remove precipitates, the optical density of each supernatant was measured at 560 nm. The concentrations of hydroxyproline were calculated from the hydroxyproline standard curve. Protein concentrations of liver samples were determined using a BCA protein assay kit (Thermo Fisher Scientific, USA) and used to normalize the calculated hydroxyproline values. Hydroxyproline levels were expressed as μg per mg total protein.

NASH mice [8] = experiment: Liver TG content in NASH mice; format: in vivo, C57BL/6J mice; settings: 10 mg/kg oral QD 9-12 wks, mean±SD, Disease-control 67.7±17.7, significant decrease
Method: Liver total lipid-extracts were obtained from right lobes by Folch's method (Folch J. et al, J. Biol. Chem. 1957; 226 (1): 497). The livers were homogenized in chloroform-methanol (2:1, v/v) and incubated overnight at room temperature. After washing with chloroform-methanol-water (8:4:3, v/v/v), the extracts were evaporated to dryness, and dissolved in isopropanol. Liver TG levels were measured by Triglyceride E-test (Wako Pure Chemical Industries). Extracts were diluted 2- to 4-fold in isopropanol when the TG contents exceed the limit of detection.

TIMP-1 = experiment: Quantitative RT-PCR of liver, TIMP-1 mRNA, NASH mice; format: in vivo, C57BL/6J mice; settings: 10 mg/kg oral QD 9-12 wks, 12 weeks of age, mean ± SD, n = 8, Normal 1.00 ± 0.25, Disease-control 7.04 ± 2.13, tended to be down-regulated, 10 mg/kg
Method: (§3) Total RNA was extracted from liver samples using RNAiso (Takara Bio, Japan) according to the manufacturer's instructions. One μg of RNA was reverse-transcribed using a reaction mixture containing 4.4 mM MgCl2 (Roche, Switzerland), 40 U RNase inhibitor (Toyobo, Japan), 0.5 mM dNTP (Promega, USA), 6.28 μM random hexamer (Promega), 5× first strand buffer (Promega), 10 mM dithiothreitol (Invitrogen, USA) and 200 U MMLV-RT (Invitrogen) in a final volume of 20 μL. The reaction was carried out for 1 hour at 37° C., followed by 5 minutes at 99° C. Real-time PCR was performed using real-time PCR DICE and SYBR premix Taq (Takara Bio). To calculate the relative mRNA expression level, the expression of each gene was normalized to that of reference gene 36B4 (gene symbol: Rplp0). Information of PCR-primer sets and the plate layout was described in Table 1.

α-SMA = experiment: Quantitative RT-PCR of liver, α-SMA mRNA, NASH mice; format: in vivo, C57BL/6J mice; settings: 10 mg/kg oral QD 9-12 wks, 12 weeks of age, mean ± SD, n = 8, Normal 1.00 ± 0.60, Disease-control 2.43 ± 1.33, no significant difference, 10 mg/kg
Method: as §3

Collagen Type 3 = experiment: Quantitative RT-PCR of liver, Collagen Type 3 mRNA, NASH mice; format: in vivo, C57BL/6J mice; settings: 10 mg/kg oral QD 9-12 wks, 12 weeks of age, mean ± SD, n = 8, Normal 1.00 ± 0.16, Disease-control 2.27 ± 0.35, tended to be down-regulated, 10 mg/kg
Method: as §3

NASH mice [9] = experiment: HE staining and NAFLD Activity score in NASH mice; settings: 10 mg/kg oral QD 9-12 wks, compared with Disease-control group
Method: NASH was induced in 40 male mice by a single subcutaneous injection of 200 μg streptozotocin (Sigma-Aldrich, USA) 2 days after birth and feeding with high fat diet (HFD, 57 kcal % fat, cat# HFD32, CLEA Japan, Japan) after 4 weeks of age. The mice were randomized into 5 groups of 8 mice at 9 weeks of age. Eight male littermates, fed with normal diet (cat# CE-2, CLEA Japan) without streptozotocin treatment, were used for the Normal group.
The test substance solution was filled in the osmotic pumps at concentrations determined based on the individual body weight at the start of treatment (day 0). Telmisartan was administered by oral route in a volume of 10 mL/kg body weight.
Telmisartan was administered once daily at a dose of 10 mg/kg body weight.
For HE staining, sections were cut from paraffin blocks of liver tissue prefixed in Bouin's solution and stained with Lillie-Mayer's Hematoxylin (Muto Pure Chemicals, Japan) and eosin solution (Wako Pure Chemical Industries).

Question: Which results are given for `CCCc1nc2c(C)cc(-c3nc4ccccc4n3C)cc2n1Cc1ccc(-c2ccccc2C(=O)O)cc1` [Telmisartan, reference compound]?
Answer: Sirius red-positive area (fibrosis area) (NASH mice [1]): 0.50±0.10%; General condition [2]: No deterioration; Liver-to-body weight ratio (NASH mice [3]; Disease-control 8.1±0.6, significant decrease): 6.9±0.7%; Mean liver weight (NASH mice [3]; Disease-control 1867±183, significant decrease): 1376 ± 80 mg; Whole blood glucose (non-fasting) (NASH mice [4]): 880 ± 39 mg/dL; Serum ALT (NASH mice [5]): 35±6 U/L; Serum TG (NASH mice [6]): 843 ± 609 mg/dL; Liver hydroxyproline content (NASH mice [7]): 0.95 ± 0.25 µg/mg; Liver TG content (NASH mice [8]): 30.6 ± 5.6 mg/g; TIMP-1 mRNA expression level (relative, normalized to 36B4) (TIMP-1): 4.10±1.18; α-SMA mRNA expression level (relative, normalized to 36B4) (α-SMA): 1.83±0.36; Collagen Type 3 mRNA expression level (relative, normalized to 36B4) (Collagen Type 3): 1.73±0.33; HE-stained liver sections: fat deposition, hepatocellular ballooning and inflammatory cell infiltration (NASH mice [9]): marked improvements
